According to patent US5624924A, “Quinobenzothiazine antineoplastic agents” (priority 1994, dated 1997):
Converted amounts (≈) assume the structure as drawn. Counter-ions that a name gives are not always drawn. Like-named read-outs stand apart in the source and are kept apart here.

Legend:
[1] = test system: P388-ADR(0.0), ADRIAMYCIN-resistant variant of P388; assay: In vitro cytotoxicity (MTT), P388-ADR(0.0); assay type: cell-based; conditions: Mus musculus, 72 h, inoculum grown in drug-free medium, Table 2
Description: (§1) Metabolic activity was measured by the cells' ability to reduce the tetrazolium dye, 3-(4,5-dimethylthiazol-2-yl)-2,5-diphenyltetrazolium bromide (MTT), to a quantifiable colored formasan derivative. Surviving cells reduce the MTT dye. The inhibitory concentrations of killing 50% of the cells (IC50 s) were calculated. Testing was in accord with the following protocol:
(§2) Test compounds and a reference antineoplastic agent, ADRIAMYCIN (doxorubicin hydrochloride), were dissolved in dimethyl sulfoxide (DMSO) and diluted, first with Earle's Balanced Salt Solution, followed by culture medium, to twice the highest concentration of the compound to be tested. From this concentrated stock, two-fold serial dilutions were prepared in 96-well microtiter trays, each well containing twice the desired final concentration of the compound. Each concentration was tested in triplicate and compared to triplicate drug-free controls.
(§3) The cells were grown in the same medium used for diluting the compounds. Adherent cells were harvested by trypsinization according to the following procedure:
(§4) After harvesting by trypsinization, viable cell counts were determined and cell density was adjusted to 25,000 cells/mL. Inoculum (0.1 mL) was then added to each well for a final concentration of 2,500 cells per well. Addition of the inoculum was used to dilute the test compounds to the desired concentration.
(§5) Microtiter trays were incubated for three days at 36° C. in a humidified atmosphere containing 5% carbon dioxide.
(§6) After three days, 20 microliters of 5 mg/mL MTT in phosphate-buffered solution were added to each well of the microtiter trays. The microtiter trays were then returned to the incubator for two to four hours to allow the surviving cells to reduce the dye. After this incubation, both the medium and the unreduced dye were removed by aspiration. DMSO was added to each well to dissolve the water-insoluble, colored end product of the dye reduction for spectrophotometric measurement at 570 nm.
(§7) Compounds from Examples 4, 6, 8, 9 and 10 were additionally tested against human and murine tumor cell lines A549, HT-29, P388-D1, P388, P388-ADR(0.0), P388-ADR(0.1) and B16F109. (P388 is a mouse leukemia cell line similar to P388-D1, but animal-passaged; P388-ADR (0.0) is an ADRIAMYCIN-resistant variant of P388, the inoculum of which is grown in drug-free medium; P388-ADR (0.1) is an ADRIAMYCIN-resistant variant of P388, the inoculum of which is grown in medium with 0.1 mcg.ml ADRIAMYCIN; and B16F10 is a mouse melanoma.) The results are presented in Table 2; as shown in the table, the compounds of the present invention are effective cytotoxic agents even against the ADRIAMYCIN-resistant cell line P388-ADR.

[2] = test system: HCT-8 human colon cancer cell line; assay: In vitro cytotoxicity (MTT), HCT-8; assay type: cell-based; conditions: HCT-8, 72 h, read-out: In Vitro Cytotoxicity (IC50)
Description: as §1, §2, §3
as §4, with “concentration. […]” for “concentration.”

B16F10 mouse melanoma = assay: In vitro cytotoxicity (MTT), B16F10; assay type: cell-based; conditions: B16-F10, 72 h, read-out: In Vitro Cytotoxicity (IC50)
Description: as §1, §2, §3, §4, §5, §6, §7

[3] = test system: HT-29 human colon cancer cell line; assay: In vitro cytotoxicity (MTT), HT-29; assay type: cell-based; conditions: HT-29, 72 h
Description: as §1, §2, §3, §4, §5, §6
(§8) The results obtained which clearly show the cytotoxicity of the compounds of Examples 5, 6, 7 and 8 against […] tumor cell lines A549, HCT-8, HT-29 and P388-D1, are illustrated in Table 1. (A549 is a human lung cancer cell line; HCT-8 is a human colon cancer cell line; HT-29 is a human colon cancer cell line; and P388-D1 is a mouse leukemia cell line.)

[4] = test system: P388 mouse leukemia cell line; assay: In vitro cytotoxicity (MTT), P388; assay type: cell-based; conditions: P388, 72 h, read-out: In Vitro Cytotoxicity (IC50)
Description: as §1, §2, §3, §4, §5, §6, §7

[5] = test system: A549 human lung cancer cell line; assay: In vitro cytotoxicity (MTT), A549; assay type: cell-based; conditions: A549, 72 h
Description: as §1, §2, §3, §4, §5, §6, §8

[6] = test system: P388-D1 mouse leukemia cell line; assay: In vitro cytotoxicity (MTT), P388-D1; assay type: cell-based; conditions: for IC50: Mus musculus, P388D1, 72 h, read-out: In Vitro Cytotoxicity (IC50), P388-D1
Description: as §1, §2, §3, §4, §5, §6, §8

[7] = test system: P388-ADR(0.1), ADRIAMYCIN-resistant variant of P388; assay: In vitro cytotoxicity (MTT), P388-ADR(0.1); assay type: cell-based; conditions: Mus musculus, 72 h, inoculum grown with 0.1 mcg.ml ADRIAMYCIN, Table 2, ADR value marked *: single test
Description: as §1, §2, §3, §4, §5
as §6, with “nm. […]” for “nm.”

P388 ascitic leukemia = assay: In vivo activity against systemic tumor P388; parameters: species or system mouse; conditions: five days
Description: Prior to testing, P388 was propagated intraperitoneally in female DBA2 mice. The ascitic tumors were intraperitoneally injected in female B6 D2 F1 mice at a concentration of 10^6 cells per mouse. The mice were treated with antiumor agents administered once daily for five consecutive days, with the antineoplastic 5-fluorouracil used as a positive control.
All drugs were administered intraperitoneally in 5% aqueous dextrose or other suitable diluent. Drug efficacy was evaluated based on prolongation of mean survival time (MST). Improvement of MST was calculated as % MST(T/C), the percent ratio of mean survival times of test (T) versus control (C) mice. Compounds having % MST(T/C) values greater than 125 are considered to have significant activity. The antitumor activity of the two compounds in the P388 systemic leukemia model is illustrated in Table 3 below.

Aqueous solubility = assay type: physicochemical; conditions: water
Source text: The effect of peptidyl substitution on the solubility of the compounds of the invention was examined by dissolving samples thereof in water.

Lewis lung carcinoma = assay: In vivo activity against Lewis lung carcinoma (subcutaneous); parameters: species or system mouse; conditions: IP days 1-9, tumor weight day 14
Description: Compound A and the compound of Example 8 were also tested against solid tumors, namely Lewis lung carcinoma on the one hand and C-26 colon adenocarcinoma and M5076 ovadan sarcoma on the other. Lewis lung carcinoma was inoculated subcutaneously to flanks of mice on day 0. The compound being tested (Compound A) was administered intraperitoneally (IP) from day 1 to day 9 for a total of nine injections. Tumor weights were measured on day 14 and drug efficacy assessed based on reduction of mean tumor mass (MTM), expressed as the percent ratio of treated (T) to control (C) MTM's. Compounds having % MTM(T/C) values of less than or equal to 40 are considered to have significant activity. These values are shown below in Table 4.

[8] = test system: C-26 colon adenocarcinoma; assay: In vivo activity against C-26 colon adenocarcinoma implanted IP (Example 42); parameters: species or system mouse; conditions: dose 40, IP days 1, 5, 9
Description: In the case of C-26 colon adenocarcinema, the tumor was implanted IP into mice on day 0. The compound to be tested. (the compound of Example 8) was administered IP at days 1, 5, and 9 and the results recorded on day 60. % MST(T/C) values were calculated as before and are shown below for two separate trials.

M5076 ovarian sarcoma = assay: In vivo activity against M5076 ovarian sarcoma implanted subcutaneously; parameters: species or system mouse; conditions: IP every 2 days, days 1-11
Description: For M5076 ovarian sarcoma, the solid tumor was implanted subcutaneously into mice on day 0. The compound to be tested (the compound of Example 8) was administered IP every 2 days up to day 11, starting on day 1. Both % MST(T/C) and % MTM(T/C) values were calculated, and are presented below.

[9] = read-out: In Vitro Cytotoxicity (IC50), HT-29, Table 2, ADR: average of two tests
[10] = read-out: In Vitro Cytotoxicity (IC50), A549, Table 2, ADR: average of two tests
[11] = Table 2, ADR value marked *: single test
[12] = read-out: In Vitro Cytotoxicity (IC50), A549, Table 1, three day MTT assay

SMILES	IC50 [1] [µg/mL]	IC50 [2] [µg/mL]	IC50 (B16F10 mouse melanoma) [µg/mL]	IC50 [3, 9] [µg/mL]	IC50 [4] [µg/mL]	IC50 [5, 10] [µg/mL]	IC50 ([6]; Table 1, three day MTT assay) [µg/mL]	IC50 [6, 11] [µg/mL]	IC50 [7] [µg/mL]	solubility (Aqueous solubility) [µg/mL]	IC50 [5, 12] [µg/mL]	also measured
COc1cccc2c1C(=O)c1c(O)c3c(c(O)c1C2=O)C[C@@](O)(C(=O)CO)C[C@@H]3O[C@H]1C[C@H](N)[C@H](O)[C@H](C)O1 [ADR, doxorubicin hydrochloride, reference compound]	2.59	0.038	0.005	0.285	0.0022	0.313	0.016	0.025	1.9	–	–	In Vitro Cytotoxicity (IC50) ([6]; P388-D1, Table 1, three day MTT assay, 4320 min, hydrochloride): 0.010
NC1CCN(c2c(F)cc3c(=O)c(C(=O)O)cn4c3c2Oc2ccccc2-4)C1 (stereo not drawn) [Compound A, 1-(3-aminopyrrolidin-1-yl)-2-fluoro-4-oxo-4H-[2,3,4-i,j][1,4]benzoxazine-5-carboxylic acid]	0.12 (≈ 0.315 µM)	–	0.021 (≈ 0.0551 µM)	0.1 (≈ 0.262 µM)	0.019 (≈ 0.0498 µM)	0.26 (≈ 0.682 µM)	–	–	–	8800 (≈ 23100 µM)	–	% MST(T/C) (P388 ascitic leukemia; 6.25 mg/kg IP once daily): 160%; % MST(T/C) (P388 ascitic leukemia; 12.5 mg/kg IP once daily): 165%; % MST(T/C) (P388 ascitic leukemia; 25 mg/kg IP once daily): 170%; % MST(T/C) (P388 ascitic leukemia; 50 mg/kg IP once daily): 180%; Lewis Lung % MTM(T/C) (Lewis lung carcinoma; dose 6.25): 68%; Lewis Lung % MTM(T/C) (Lewis lung carcinoma; dose 12.5): 67%; Lewis Lung % MTM(T/C) (Lewis lung carcinoma; dose 25): 47%; Lewis Lung % MTM(T/C) (Lewis lung carcinoma; dose 50): 41%
Cc1ccc2c(c1)Oc1c(N3CCC(N)C3)c(F)cc3c(=O)c(C(=O)O)cn-2c13 (stereo not drawn) [Example 6, 1-(3-aminopyrrolidin-1-yl)-2-fluoro-9-methyl-4-oxo-4H-quino[2,3,4-i,j][1,4]benzoxazine-5-carboxylic acid hydrochloride]	0.2	–	0.056	0.076	0.071	0.23	0.067	0.08	0.2	–	0.13	IC50 ([3]; read-out: In Vitro Cytotoxicity (IC50), HT-29, Table 1, three day MTT assay): 0.049 µg/mL
CCC[C@H](N)C(=O)NC1CCN(c2c(F)cc3c(=O)c(C(=O)O)cn4c3c2Oc2ccccc2-4)C1 (stereo partly drawn) [Example 8, 1-(3-norvalylaminopyrrolidin-1-yl)-2-fluoro-4-oxo-4H-quino[2,3,4-i,j][1,4]benzoxazine-5-carboxylic acid hydrochloride]	0.394	0.075	0.0271	0.195	0.0395	0.591	< 0.05	–	–	10700	0.512	C-26 % MST(T/C) ([8]; first trial): 52.3%; C-26 % MST(T/C) ([8]; second trial): 43.9%; M5706 % MST(T/C) (M5076 ovarian sarcoma; dose 5): 148.4%; M5706 % MTM(T/C) (M5076 ovarian sarcoma; dose 5): 62%; M5706 % MST(T/C) (M5076 ovarian sarcoma; dose 10): 154.4%; M5706 % MTM(T/C) (M5076 ovarian sarcoma; dose 10): 49%; M5706 % MST(T/C) (M5076 ovarian sarcoma; dose 20): 138.1%; M5706 % MTM(T/C) (M5076 ovarian sarcoma; dose 20): 22%; M5706 % MST(T/C) (M5076 ovarian sarcoma; dose 40): 39.1%; % MST(T/C) (P388 ascitic leukemia; 3.9 mg/kg IP once daily): 177.3%; % MST(T/C) (P388 ascitic leukemia; 7.81 mg/kg IP once daily): 200.0%; % MST(T/C) (P388 ascitic leukemia; 15.62 mg/kg IP once daily): 209.1%; % MST(T/C) (P388 ascitic leukemia; 31.25 mg/kg IP once daily): 63.6%
Cc1ccc2c(c1)Oc1c(N3CCC(NC(=O)[C@H](C)N)C3)c(F)cc3c(=O)c(C(=O)O)cn-2c13 (stereo partly drawn) [Example 9, 1-(3-alanylaminopyrrolidin-1-yl)-2-fluoro-9-methyl-4-oxo-4H-quino[2,3,4-i,j][1,4]benzoxazine-5-carboxylic acid hydrochloride]	0.19	–	0.048	0.075	0.062	0.23	–	0.081	0.18	–	–	–
